Data from patent publication US11730712B2, “Functionalized long-chain hydrocarbon mono- and di-carboxylic acids and derivatives thereof, and their use for the prevention or treatment of disease” (ESPERVITA THERAPEUTICS, INC., priority 2021, dated 2023).

Experiments:
[1] = test system: mouse primary hepatocytes; experiment: 14C-acetate incorporation into total lipids in primary mouse hepatocytes; assay type: cell-based; conditions: 4-hour period; for IC50: Hepatocyte, read-out: IC50 in μM, inhibition of 14C-acetate incorporation in total lipids
Protocol: After perfusion, collagen digested liver cells were re-suspended in William's E media (11 mM glucose) (Gibco) supplemented with 10% fetal bovine serum (FBS) (Gibco), 2 mM L-glutamine (Gibco) and 1% Antibiotic-Antimycotic (Gibco) mixture and seeded in white opaque 96-well plates. On the following day, the cells were serum-starved for 2 hours, then treated with 0 μM, 0.1 μM, 0.3 μM, 0.5 μM, 1 μM, 3 μM, 10 μM, and 100 μM of Compound I-32, Compound I-1, or Compound III-1 or Reference Compound (e.g., Compounds A-E and bempedoic acid) in the presence of ^14C-Acetate (1 μCi/ml, PerkinElmer). Each of Compound I-32, Compound I-1, Compound III-1, and Reference Compound was solubilized in 100% DMSO to a final concentration of 100 mM stock solution. In the experimental condition, the stock solution was diluted in serum free media (William's E media (11 mM glucose) (Gibco), 2 mM L-glutamine (Gibco) and 1% Anti biotic-Antimycotic) to yield the desired concentration of each compound. […] After 4 hours of treatment, the plates were washed two times with PBS (×1) and 100 μL microscint fluid (Microscint O, part #601361) was added in each well. Plates were wrapped with aluminum foil and were shaken at 250 rpm for 2 h. After 2 h of shaking, ^14C incorporation into lipid was determined by liquid scintillation counting using a TopCount NXT Microplate Scintillation and Luminescence Counter (Perkin Elmer).
The effects of Compound I-32. Compound I-1, and Compound III-1 on mouse primary hepatocyte lipogenesis are represented in Table 1. Each Compound was assayed at a concentration of 0 μM (vehicle control), 0.1 μM, 0.3 μM, 0.5 μM, 1 μM, 3 μM, 10 μM, and 100 μM, unless otherwise noted. Statistically significant inhibition was determined by one-way ANOVA and Dennett's post hoc test where appropriate. […] IC50 values were determined by nonlinear regression. All statistical analyses were carried out using GraphPad Prism 8 software. A p-value of less than or equal 0.05 was considered significant.

[2] = test system: Acyl-CoA synthetase activity in rat liver microsomes; experiment: Synthesis of CoA derivatives in rat liver microsomes (LCMS); conditions: 1 mM substrate, 30 min sample vs 0 min
Protocol: Prior to the experiment a 1 mM working stock was created in primary hepatocyte media which was used to create the final dilution series of 0 (vehicle), 0.3, 1, 3, 10, and 30 μM. The final concentration of DMSO in all samples was <1%.
For initial validation of ACS activity using palmitate, 14C-palmitate was added (0.5 μCi/ml). Each sample was equilibrated at 37° C. while shaking for 10 min before the reaction was initiated by the addition of 0.04 mg of rat microsomal preparation (ThermoFisher Scientific. Cat #RTM-CPL, Lot #RT060-A) followed by incubation for 1, 3, 10, or 30 mins. Time 0 sample with no added microsomes was used as a control. The reaction was stopped by immediately placing the reaction tube on ice followed by the rapid addition of the reaction mixture to 2.25 ml ice-cold isopropanol/heptane/2M-sulfuric acid (40:10:1, vol/vol) in a 5 ml glass vial. […] For studies that involved measurement of 14C Palmitoyl-CoA formation, 200 μl of the lower aqueous phase was added to the 5 ml of scintillation fluid and the number of DPMs were determined by liquid scintillation counting for 5 minutes using a LS6500 Liquid Scintillation Counter (Beckman Coulter). […]
The reaction products were ionized by electrospray ion source (ESI) in positive mode. […] The resulting mass spectra were analyzed using the Xcalibur 2.1 Qualitative software package. […]

[3] = test system: Hepa1-6 murine hepatoma cells; experiment: Cell proliferation assay (presto blue, 72 h); assay type: cell-based, mouse; conditions: Mus musculus, Hepa1-6, 72 h; read-out: Hepa1-6 (IC50), anti-proliferation activity
Protocol: (§1) Cell cultures. Hep3B (ATCC) and Hepa1-6 (ATCC) cells were seeded in 96-well plates at a density of 3000 cells/well with complete media. On day 2, media in each well was aspirated and replaced with 100 μl of fresh complete media and cells were treated with or without Compound I-1, Compound I-32, Compound I1-84, and Compound I-85, in a concentration dependent manner. Then, cells were incubated in an incubator for 72 h. On day 5, 10 μl of presto blue (Invitrogen, cat #A13261) cell viability reagent was added in each 96-well plate and incubated at 37° C. for 1-2 h. After incubation, fluorescence was measured with an excitation/emission wavelength of 560/590 nm.
(§2) Proliferation assay. Hep3B (ATCC) and Hepa1-6 (ATCC) cells were seeded in 96-well plates at a density of 3000 cells/well with complete media. On day 2, media in each well was aspirated and replaced with 100 μl of fresh complete media and cells were treated with/without testing compounds in a concentration dependent manner. Then, cells were incubated in an incubator for 72 h. On day 5, 10 μl of presto blue (Invitrogen, cat #A13261) cell viability reagent was added in each 96-well plate and incubated at 37° C. for 1-2 h. After incubation, fluorescence was measured with an excitation/emission wavelength of 560/590 nm. Anti-proliferative combination effects of Compound I-1 or Compound I-32 and regorafenib were determined in Hep3B and Hepa1-6 cells. Drug combination interaction was determined by the Chou-Talalay method (23), which is based on well-known equations for different reaction sequences and mechanisms, and different types of inhibition. These equations provide the theoretical basis for the combination index (CI)-isobologram equation that allows quantitative determination of drug interactions, where CI<1, =1, and >1 indicate synergism, additive effect, and antagonism, respectively. CI is calculated based on in vitro measurements implemented in the Compusyn software (www.combosyn.com), a platform for drug combinations pharmacodynamics with automated simulations. The software calculates CI based on the Fractional Inhibition (Fa), which is the potency expressed by the average effect values for each drug concentrations as determined by in vitro experiments. The dose-effect data entries are utilized for automated computerized analysis by the Compusyn software.
(§3) Data entered was obtained by in vitro experiments performed as follows: Hep3B or Hepa 1-6 cells were plated in a 96-well format and cell proliferation rates were determined as described above. Cells were treated with 5 doses of each test agent alone at the following concentrations: compounds of the invention dosed at 1, 5, 10, 50, or 100 μM for both Hep3B and Hepa1-6 cells, regorafenib dosed at 0.015, 0.075, 0.15, 0.75, and 1.5 μM for Hep3B cells or 0.05, 0.25, 0.5, 2.5, 5 μM for Hepa 1-6 cells. […]. Data are shown as Fa-CI plots where CI is the combination index and Fa is fractional inhibition. Results were indicated as mean±standard deviation (SD). All bar diagrams and line graphs were prepared using Graph Pad Prism 8 software. Drug synergy was calculated using the CompuSyn software.
(§4) Methods: Hep3B cells (supplied by ATCC) and Hepa1-6 cells (supplied by ATCC) were seeded in 96-well plates at a density of 3000 cells/well with complete media. On day 2, the media in each well was aspirated and replaced with 100 μL of fresh complete media, and the cells were treated in a concentration dependent manner with either Compound I-1, Compound I-32, Compound I-84, Compound I-85, sorafenib, lenvatinib, Compound I-1 in combination with sorafenib. Compound I-1 in combination with lenvatinib, Compound I-32 in combination with sorafenib, or Compound I-32 in combination with lenvatinib. The cells were then incubated in an incubator at 37° C. for 72 h. On day 5, 10 μL of presto blue (Invitrogen, cat #A13261) cell viability reagent was added to each 96-well plate and incubated at 37° C. for 1-2 h. […]

[4] = test system: Hep3B human hepatocarcinoma cells; experiment: Colony formation assay (clonogenic survival, 7 days); assay type: cell-based; conditions: 168 h, read-out: Hep3B (IC50), anti-clonogenic activity
Protocol: (§5) Colony formation assay. Hep3B and Hepa1-6 cells were seeded in 12-well plates at a cell density of 1000 and 500 cells/well, respectively. On day 2, media in each well was aspirated and replaced with 1000 μl of fresh complete media and cells were treated with or without the respective drugs in an increasing concentration followed by the incubation of the cells for 7 days in an incubator.
(§6) On day 9, the media in each well was aspirated and cells were fixed with 10% formalin (500 μl) for 10 minutes at room temperature. Formalin was aspirated and the plates were washed with 1×PBS and stained with crystal violet for another 10 minutes. After 10 minutes of staining, crystal violet was […] the cells, rinsed with tap water for three times and the plates were dried overnight. Next day, colonies (>50 cells) were counted and analyzed.
(§7) Statistical tests. Results were indicated as mean±standard deviation (SD). All line graphs were prepared using Graph Pad Prism 8 software. Proliferation and clonogenics IC50 values were calculated using a non-linear regression model in Graph pad Prism 8.

[5] = test system: Hepa1-6 murine hepatoma cells; experiment: as above; assay type: cell-based; conditions: Mus musculus, Hepa1-6, 168 h, read-out: Hepa1-6 (IC50), anti-clonogenic activity
Protocol: as §5, §6, §7

[6] = test system: Hep3B human hepatocarcinoma cells; experiment: Cell proliferation assay (presto blue, 72 h); assay type: cell-based; conditions: Homo sapiens, Hep3B, 72 h; read-out: Hep3B (IC50), anti-proliferation activity
Protocol: as §1, §2, §3, §4

[7] = target: T1, Human ACC1 (Homo sapiens, UniProt Q13085); experiment: ACC1 enzymatic assay (ADP-Glo); assay type: biochemical; conditions: recombinant human ACC1 5 nM, 10 μM ATP, 10 μM acetyl CoA; Run 1-3; read-out: Compound IC50 (M) ACC1
T1 construct: FLAG (C); His (C); purchased BPS Biosciences 50202; host or cells: Baculovirus infected Sf9 cells
Protocol: (§8) Human ACC1 (Cat#50202 Lot #120830) and ACC2 (Cat #50201 Lot #160217) were obtained from BPS Biosciences, San Diego, Calif. 92121. Human ACC1 had C-terminal flag and His-tags with a MW of 270 KDa after purification from Baculovirus infected Sf9 cell expression system and came as a solution in 50 mM Tris-HCl, pH 8.0, 500 mM NaCl, 10% glycerol, 1 mM DTT, 100 μg/ml FLAG peptide with 70% purity. The stock concentration was 0.25 mg/ml corresponding to 0.926 μM. Human ACC2 was also purified from Baculovirus infected Sf9 expression system. […] The stock concentration was 0.1 mg/ml corresponding to 0.36 μM. The assay buffer for measuring the activity of ACC contained: 30 mM HEPES (pH 7.4), 2 mM MgCl2, 0.01% Brij35, 2 mM DTT, 1% DMSO (solvent for compound). For ACC1 and ACC2 assays, the following concentrations of substrate and cofactors were used: 12 mM NaHCO3, 10 μM acetyl CoA, 10 μM ATP, and 2 mM K-citrate. The recombinant human enzyme was used at 5 nM for ACC1 and 1 nM for ACC2. In brief, enzyme alone in the above buffer without substrate was used for background. All test materials were dissolved in 100% DMSO using acoustic technology (Echo550). The prepared solution was preincubated for 15 min followed by the addition of 5 μL/well of ADP standard. ATP was then added to start the reaction. The assay contents were spun and briefly shaken followed by incubation at room temperature for 1 h. At the end of completion of assay, 5 μL of ADP-Glo was added to each well to stop the reaction. The contents were mixed, spun and incubated at room temperature for 40 min followed by the addition of 10 μL/well of ADP detection reagent. The contents were spun, mixed and covered with plastic to measure luminescence. […] The light generated, measured in a luminometer, correlates to the amount of ADP generated in the ACC assay, which is indicative of ACC activity.
(§9) The enzyme concentrations for ACC1 and ACC2 were 5 nM and 1 nM, respectively.
Data represent nM or μM ADP produced, % Activity (relative to no inhibitor controls), and curve fits were performed by GraphPad Prism software. The IC50 concentration-response curves were generated for both the ACC1 and ACC2 assays using recombinant human ACC.

[8] = target: T2, Human ACC2 (Homo sapiens, UniProt O00763); experiment: ACC2 enzymatic assay (ADP-Glo); assay type: biochemical; conditions: recombinant human ACC2 1 nM, 10 μM ATP, 10 μM acetyl CoA; Run 1-3; read-out: Compound IC50 (M) ACC2
T2 construct: FLAG (C); His (C); purchased BPS Biosciences 50201; host or cells: Baculovirus infected Sf9 cells
T2 sequence (O00763 whole entry): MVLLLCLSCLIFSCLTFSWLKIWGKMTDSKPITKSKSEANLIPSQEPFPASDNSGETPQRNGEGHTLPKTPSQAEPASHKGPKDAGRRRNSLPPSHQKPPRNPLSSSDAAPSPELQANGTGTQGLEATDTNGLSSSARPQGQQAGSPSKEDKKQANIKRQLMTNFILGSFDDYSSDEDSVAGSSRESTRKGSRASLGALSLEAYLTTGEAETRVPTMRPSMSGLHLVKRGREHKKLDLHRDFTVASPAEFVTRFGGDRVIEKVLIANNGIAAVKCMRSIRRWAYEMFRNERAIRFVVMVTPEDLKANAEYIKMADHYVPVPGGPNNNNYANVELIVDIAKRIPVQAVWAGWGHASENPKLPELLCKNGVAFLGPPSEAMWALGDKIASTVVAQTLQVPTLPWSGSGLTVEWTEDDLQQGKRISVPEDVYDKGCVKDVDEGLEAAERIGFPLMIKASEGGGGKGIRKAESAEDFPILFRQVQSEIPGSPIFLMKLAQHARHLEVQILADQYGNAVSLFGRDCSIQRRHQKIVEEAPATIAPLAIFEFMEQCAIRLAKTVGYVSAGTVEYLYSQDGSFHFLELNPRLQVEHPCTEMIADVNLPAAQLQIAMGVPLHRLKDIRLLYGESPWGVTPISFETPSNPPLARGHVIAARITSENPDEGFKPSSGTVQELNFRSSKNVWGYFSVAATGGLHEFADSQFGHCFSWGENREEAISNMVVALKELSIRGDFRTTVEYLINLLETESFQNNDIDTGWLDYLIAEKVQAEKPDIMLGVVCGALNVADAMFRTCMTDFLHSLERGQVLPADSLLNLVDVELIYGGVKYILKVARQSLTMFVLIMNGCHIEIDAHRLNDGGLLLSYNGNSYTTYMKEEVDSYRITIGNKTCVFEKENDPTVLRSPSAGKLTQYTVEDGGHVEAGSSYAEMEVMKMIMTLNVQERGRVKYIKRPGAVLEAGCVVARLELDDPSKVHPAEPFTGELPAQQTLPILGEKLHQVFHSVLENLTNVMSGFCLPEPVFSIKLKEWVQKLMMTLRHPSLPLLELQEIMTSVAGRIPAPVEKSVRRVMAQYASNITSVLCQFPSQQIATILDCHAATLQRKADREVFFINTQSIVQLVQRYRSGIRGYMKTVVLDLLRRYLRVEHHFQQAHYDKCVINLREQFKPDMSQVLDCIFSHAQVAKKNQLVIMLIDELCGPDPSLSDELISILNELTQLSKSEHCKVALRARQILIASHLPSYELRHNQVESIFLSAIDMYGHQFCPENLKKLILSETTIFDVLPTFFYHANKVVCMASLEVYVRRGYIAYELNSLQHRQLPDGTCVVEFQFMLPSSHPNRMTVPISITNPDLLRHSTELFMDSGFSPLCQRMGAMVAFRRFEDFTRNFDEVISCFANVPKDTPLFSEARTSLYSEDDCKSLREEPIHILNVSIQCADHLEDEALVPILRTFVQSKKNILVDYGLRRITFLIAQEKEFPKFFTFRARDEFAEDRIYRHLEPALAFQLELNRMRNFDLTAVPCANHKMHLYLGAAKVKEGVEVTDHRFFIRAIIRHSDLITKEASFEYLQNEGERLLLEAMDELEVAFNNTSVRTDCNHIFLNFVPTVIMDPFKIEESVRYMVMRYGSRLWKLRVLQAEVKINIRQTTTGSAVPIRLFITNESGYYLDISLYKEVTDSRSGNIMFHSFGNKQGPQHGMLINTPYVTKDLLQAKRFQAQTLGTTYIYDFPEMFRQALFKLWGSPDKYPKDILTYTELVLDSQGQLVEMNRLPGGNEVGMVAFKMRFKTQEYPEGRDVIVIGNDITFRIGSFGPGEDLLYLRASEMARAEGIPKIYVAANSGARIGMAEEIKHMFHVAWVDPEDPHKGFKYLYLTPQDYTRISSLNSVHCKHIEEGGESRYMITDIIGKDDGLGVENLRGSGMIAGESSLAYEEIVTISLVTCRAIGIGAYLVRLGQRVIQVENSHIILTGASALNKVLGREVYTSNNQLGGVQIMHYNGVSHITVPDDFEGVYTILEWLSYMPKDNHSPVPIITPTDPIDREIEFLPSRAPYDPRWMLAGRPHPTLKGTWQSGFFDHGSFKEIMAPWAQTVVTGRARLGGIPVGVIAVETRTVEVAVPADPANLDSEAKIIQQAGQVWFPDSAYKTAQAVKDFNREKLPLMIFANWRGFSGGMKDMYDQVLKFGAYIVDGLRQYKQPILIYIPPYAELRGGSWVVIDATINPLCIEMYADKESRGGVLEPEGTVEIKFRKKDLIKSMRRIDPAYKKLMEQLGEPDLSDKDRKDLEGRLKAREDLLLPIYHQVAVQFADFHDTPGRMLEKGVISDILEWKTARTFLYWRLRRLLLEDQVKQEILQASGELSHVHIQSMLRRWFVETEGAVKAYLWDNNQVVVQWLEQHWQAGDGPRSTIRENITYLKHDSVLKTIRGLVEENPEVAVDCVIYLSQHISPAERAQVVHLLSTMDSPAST
Protocol: as §8, §9
Data represent nM or μM ADP produced, % Activity (relative to no inhibitor controls), and curve fits were performed by GraphPad Prism software. […]

Question: How did the IC50 [1] turn out when `CC(C)(CCCCCC(=O)CCCCCC(C)(C)C(=O)O)C(=O)O` [C] was run?
Answer: 0.46 µM

Question: With `CC(C)(CO)CCCCCC(=O)CCCCCC(C)(C)CO` [D] as the compound, how does the IC50 [1] read?
Answer: 5.39 µM

Question: With `CC(C)(CCCCCCCCCCCC(C)(C)C(=O)O)C(=O)O` [F] as the compound, how does the IC50 [1] read?
Answer: < 0.3 µM

Question: `CC(C)(CCCCC(=O)CCCCC(C)(C)C(=O)O)C(=O)O` [B] was tested. Which “% change from control at 100 μM ± SEM(n), 14C-acetate incorporation in total lipids” value [1] did it give?
Answer: −69 ± 2.3 (n = 4) %

Question: And the IC50 [1]?
Answer: 25.6 µM

Question: `CC(C)(CCCc1ccc(CCCC(C)(C)C(=O)SCCNC(=O)CCNC(=O)[C@H](O)C(C)(C)COP(=O)(O)OP(=O)(O)OC[C@H]2O[C@@H](n3cnc4c(N)ncnc43)[C@H](O)[C@@H]2OP(=O)(O)O)cc1)C(=O)O` [III-1-CoA, 5-[4-(4-Carboxy-4-methylpentyl)-phenyl]-2,2-dimethylpentanoic acid Coenzyme A ester] was tested. Which “formation of the CoA derivative, detection by LCMS” value [2] did it give?
Answer: could not be confirmed using fragmentation analysis

Question: `CC(C)(CCCCc1cccc(CCCCC(C)(C)CC(=O)O)c1)CC(=O)O` [Compound I-85, 7,7′-(1,3-phenylene)bis(3,3-dimethylheptanoic acid)] was tested. Which IC50 [3] did it give?
Answer: > 100 µM

Question: And the IC50 [4]?
Answer: 49.1 µM

Question: What about the IC50 [5] of the same compound?
Answer: 61 µM

Question: What about the IC50 [6] of the same compound?
Answer: > 100 µM

Question: For `CC(C)(CO)CCCCC(=O)CCCCC(C)(C)CO` [A], which IC50 [1] is on record?
Answer: 73.2 µM

Question: For `CC(C)(CCCCCCC(=O)CCCCCCC(C)(C)C(=O)O)C(=O)O` [E], which IC50 [1] is on record?
Answer: 0.35 µM

Question: How did the IC50 [1] turn out when `CC(C)(CCCc1ccc(CCCC(C)(C)C(=O)O)cc1)C(=O)O` [III-1, 5,5′-(1,4-phenylene)bis(2,2-dimethylpentanoic acid)] was run?
Answer: 27.7 µM

Question: Which IC50 [7] does the source give for `O=C(c1c2ccccc2cc2ccccc12)N1CCC(N2CCC[C@@H](C(=O)N3CCOCC3)C2)CC1` [CP 640186, reference compound] here?
Answer: 2.14e-06 M

Question: And the IC50 [8]?
Answer: 7.81e-08 M

Question: Which “% change from control at 100 μM ± SEM(n), 14C-acetate incorporation in total lipids” value [1] does the source give for `CC(C)(CCCc1ccccc1CCCC(C)(C)C(=O)O)C(=O)O` [Compound I-61, 5-[2-(4-Carboxy-4-methylpentyl)-phenyl]-2,2-dimethylpentanoic acid] here?
Answer: +44 ± 8.1 (n = 4) %

Question: `CC(C)(CCCCCC(O)CCCCCC(C)(C)C(=O)O)C(=O)O` [BA, Bempedoic acid] was tested. Which IC50 [1] did it give?
Answer: 0.68 µM

Question: `CC(C)(CCCCc1ccc(CCCCC(C)(C)CC(=O)O)cc1)CC(=O)O` [Compound I-84, 7,7′-(1,4-phenylene)bis(3,3-dimethylheptanoic acid)] was tested. Which IC50 [3] did it give?
Answer: > 100 µM

Question: What about the IC50 [4] of the same compound?
Answer: 50.1 µM

Question: And the IC50 [5]?
Answer: 64.9 µM

Question: What about the IC50 [6] of the same compound?
Answer: > 100 µM
